Test results as given in ChEMBL document CHEMBL4402536, “Recent progress on anti-Toxoplasma drugs discovery: Design, synthesis and screening” (Eur J Med Chem, 2019).
Converted amounts (≈) assume the structure as drawn.

Columns and labels:
[1] = tested on: Toxoplasma gondii; assay: Antiparasitic activity against Toxoplasma gondii; type: functional, organism-based
[2] = tested on: Toxoplasma gondii; assay: Antiparasitic activity against Toxoplasma gondii infected in human HFF cells after 4 hrs; type: functional, organism-based
[3] = tested on: Toxoplasma gondii; assay: Antiparasitic activity against Toxoplasma gondii infected in human HuH7 cells; type: functional, organism-based
[4] = Inhibition of Toxoplasma gondii CDPK1
[5] = tested on: Toxoplasma gondii; assay: Antiparasitic activity against Toxoplasma gondii RH infected in human HFF cells in presence of […] by radio-labelled assay; type: functional, organism-based
[6] = tested on: Toxoplasma gondii; assay: Antiparasitic activity against Toxoplasma gondii infected in human HFF cells after 7 days by crystal violet assay; type: functional, organism-based; details: 168 h
[7] = tested on: HFF; assay: Cytotoxicity against human HFF cells assessed as reduction in cell viability; type: cell-based
[8] = Selectivity index, ratio of EC50 for human HFF cells to EC50 Toxoplasma gondii RH; type: functional
[9] = tested on: Toxoplasma gondii; assay: Antiparasitic activity against Toxoplasma gondii infected in human HFF cells after 4 hrs by CellTiter 96Aqueous One cell viability assay; type: functional, organism-based
[10] = Half life of the compound; type: physicochemical
[11] = Therapeutic index, ratio of TD50 in CF-1 mouse to IC50 of Toxoplasma gondii infected in human HFF cells; type: toxicity, cell-based; details: read-out: TI
[12] = tested on: Toxoplasma gondii; assay: Antiparasitic activity against Toxoplasma gondii infected in CF-1 mouse at 0.04 to 50 mg/kg, po after 48 hrs; type: functional
[13] = tested on: Huh-7; assay: Cytotoxicity against human HuH7 cells assessed as reduction in cell viability; type: functional, cell-based

## C[C@H]1[C@H](C)CC[C@]2(C(=O)O)CC[C@]3(C)C(=CC[C@@H]4[C@@]5(C)CC[C@H](O)C(C)(C)[C@@H]5CC[C@]43C)[C@H]12 [URSOLIC ACID]
[1]
  IC50: 5900 nM

## CC(C)(C)C1=CC(=NNC(=O)c2ccc([N+](=O)[O-])cc2)C=C(C(C)(C)C)C1=O
[2]
  IC50: 200 nM

## O=c1[nH]ccc2nc(NC3CCCNC3)nc(Nc3ccc(S(=O)(=O)N4CCOCC4)cc3)c12 (centres undefined)
[1]
  IC50: < 500 nM

## O=C1CN(CCCCCN2CCCCC2)c2ccc([N+](=O)[O-])cc2N1
[3]
  MIC50: 3.3 µM (≈ 1.14 µg/mL)

## O=C(CC1NCCCC1O)Cn1cnc2cc(Br)c(Cl)cc2c1=O (centres undefined) [HALOFUGINONE]
[1]
  EC50: 1.4 nM

## Cc1coc2c1C(=O)C(=O)c1c-2ccc2c1CCCC2(C)C [TANSHINONE IIA]
[1]
  IC50: 2500 nM

## Cc1cccc(Cc2nn(C(C)(C)C)c3ncnc(N)c23)c1
[1]
  EC50: 110 nM
[4]
  IC50: 3.99 nM

## C=C(C)[C@H](CC=C(C)C)C[C@]12C[C@H](CC=C(C)C)C(C)(C)[C@](CC=C(C)C)(C(=O)C(C(=O)c3ccc(O)c(O)c3)=C1O)C2=O
[5]
  EC50: 1800 nM

## CC(C)c1n[nH]c2c(=O)[nH]c(Cc3ccccc3)nc12
[6]
  IC50: 2000 nM

## CC[C@]1(C)NC(=O)[C@H](CCCCCC(=O)[C@@H](C)OC(=O)Oc2ccccc2)NC(=O)[C@H]2C[C@H](C)CN2C(=O)[C@H](Cc2ccccc2)NC1=O
[5]
  EC50: 11.3 nM
[7]
  EC50: 59.2 nM
[8]
  Selectivity Index: 47.7

## CCOc1ccc(/C=C/c2nc(=O)c3ccccc3o2)cc1
[2]
  IC50: 270 nM

## O=c1[nH]c2cc(Cl)ccc2n1C1CCN(CCCC(c2ccc(F)cc2)c2ccc(F)cc2)CC1 [CLOPIMOZIDE]
[1]
  IC50: 1800 nM

## Cc1[nH]c2cc(F)cc(F)c2c(=O)c1-c1ccc(Oc2ccc(OC(F)(F)F)cc2)cc1
[9]
  EC50: 5 nM

## CCN(CC)c1ccc(C(=O)NC(=O)c2ccccc2O)cc1
[10]
  half-life: 33 min
[1]
  IC50: 8 nM

## O=C1CCCN[C@@H]1CCCn1cnc2ccccc2c1=O
[1]
  EC50: 8900 nM

## CCCOc1ccccc1-c1nc2[nH]nnc2c(=O)[nH]1 [ZAPRINAST]
[6]
  IC50: 60000 nM

## CC(=O)O[C@H]1CC[C@]2(C)[C@H]3CC=C4[C@@H]5CC(C)(C)CC[C@]5(C(=O)O)CC[C@@]4(C)[C@]3(C)CC[C@H]2C1(C)C [ACETYL OLEANOLIC ACID]
[1]
  IC50: 6800 nM

## O=c1c2ccccc2ncn1C[C@H](O)C[C@H]1NCCC[C@@H]1O
[1]
  EC50: 1900 nM

## CC/C(=C(\c1ccccc1)c1ccc(OCCN(C)C)cc1)c1ccccc1 [TAMOXIFEN]
[1]
  IC50: 1900 nM

## O=C1C=C/C(=N\Oc2ccc([N+](=O)[O-])cc2[N+](=O)[O-])c2cccnc21
[1]
  IC50: 1340 nM

## C=CC(C)(C)c1cc(/C=C/C(=O)c2ccc(O)cc2)c(OC)cc1O [LICOAGROCHACONE A]
[1]
  IC50: 0.848 µg/mL

## CCc1ccc(C(=O)NC(=O)c2ccccc2O)cc1
[10]
  half-life: < 10 min
[1]
  IC50: 16 to 32 nM

## O=C1C2=C(C(=O)c3ccccc31)[C@H]1Oc3ccc(Cl)cc3[C@H]1CO2
[1]
  IC50: < 1000 nM

## COc1cc2[nH]c(C)c(-c3ccc(Oc4ccc(OC(F)(F)F)cc4)cc3)c(=O)c2cc1F
[11]
  selectivity ratio: > 7.1e+06
[9]
  IC50: 0.007 nM
[12]
  ED50: 0.08 mg/kg

## OCCOCCN1CCN(C(c2ccccc2)c2ccc(Cl)cc2)CC1 (centres undefined) [HYDROXYZINE]
[1]
  IC50: 1000 nM

## Cc1[nH]c2ccccc2c(=O)c1-c1ccc(Oc2ccc(OC(F)(F)F)cc2)cc1
[11]
  selectivity ratio: 93500
[9]
  IC50: 1 nM
[12]
  ED50: 0.14 mg/kg

## CC(C)(C)c1cc(C2C(C#N)=C(N)OC3=C2C(=O)CCC3)cc(C(C)(C)C)c1O (centres undefined)
[2]
  IC50: 1300 nM

## CC(C)(C)C1=CC(=NNc2ccc([N+](=O)[O-])cc2[N+](=O)[O-])C=C(C(C)(C)C)C1=O
[2]
  IC50: 130 nM

## CC(C)n1c(/C=N/Nc2nc3ccccc3[nH]2)nc2ccccc21
[1]
  IC50: 1360 nM

## O=C(Nc1ccc([N+](=O)[O-])cc1Cl)c1cc(Cl)ccc1O [NICLOSAMIDE]
[1]
  EC50: 0.0453 µg/mL

## C[C@H]1[C@H](C)CC[C@]2(C(=O)OCCn3cnnc3-c3ccccc3)CC[C@]3(C)C(=CC[C@@H]4[C@@]5(C)CC[C@H](O)C(C)(C)[C@@H]5CC[C@]43C)[C@H]12
[1]
  IC50: 128 µg/mL

## C/C1=C\[C@H](C)C[C@H](C)OC(=O)C[C@H](c2ccc(O)cc2)NC(=O)[C@@H](Cc2c(Br)[nH]c3ccccc23)N(C)C(=O)[C@H](C)NC(=O)[C@@H](C)C1 [JASPAMIDE]
[6]
  EC50: 30 to 300 nM

## O=C(C[C@H]1NCCC[C@@H]1O)Cn1cnc2c(c1=O)CCCC2
[1]
  EC50: 880 nM

## C[C@H]1Cc2c([nH]c3cc(Cl)c(F)cc23)[C@@]2(N1)C(=O)Nc1ccc(Cl)cc12 [CIPARGAMIN]
[3]; Huh-7
  IC50: 1000 nM

## COc1ccc(OC)c(NCc2ccc3nc(N)nc(N)c3c2Cl)c1
[1]
  IC50: 20 nM

## CC(=O)O[C@H]1CC[C@]2(C)[C@H]3CC=C4[C@@H]5[C@@H](C)[C@H](C)CC[C@]5(C(=O)O)CC[C@@]4(C)[C@]3(C)CC[C@H]2C1(C)C [O-ACETYLURSOLIC ACID]
[1]
  IC50: 7900 nM

## CC[C@]1(C)NC(=O)[C@H](CCCCCC(=O)[C@@H](C)OC(C)=O)NC(=O)[C@H]2C[C@H](C)CN2C(=O)[C@H](Cc2ccccc2)NC1=O
[5]
  EC50: 10.2 nM
[7]
  EC50: 632 nM
[8]
  Selectivity Index: 62

## CC(C)(C)C1=CC(=NNC(=O)c2ccncc2)C=C(C(C)(C)C)C1=O
[2]
  IC50: 2300 nM

## CC(C)(C)[C@H]1CC[C@H](CC2=C(O)C(=O)c3ccccc3C2=O)CC1 [BUPARVAQUONE]
[1]
  IC50: 100 nM

## CC1(C)CC[C@]2(C(=O)O)CC[C@]3(C)C(=CC[C@@H]4[C@@]5(C)CC[C@H](O)C(C)(C)[C@@H]5CC[C@]43C)[C@@H]2C1 [OLEANOLIC_ACID]
[1]
  IC50: 54800 nM

## CC(=O)[C@@H]1CC[C@]2(C)CC[C@]3(C)[C@H](CC[C@@H]4[C@@]5(C)CCC(=O)C(C)(C)[C@@H]5CC[C@]43C)[C@@H]12
[1]
  IC50: 24400 nM

## OCCCCCCC1COOC2(CCCCCCCCCCC2)OO1 (centres undefined)
[13]
  IC50: 310 µg/mL (≈ 865 µM)
[3]; Huh-7
  LC50: 1.11 µg/mL (≈ 3.1 µM)
